# Results published in US20240252586A1, “ENGINEERED ANTIMICROBIAL PEPTIDES AND USAGE THEREOF” (priority 2021, published 2024).
# Values joined by “and” are separate entries in the source; they are usually repeats but may differ in a detail not shown here. Equal values may be shown once. Read-outs that look alike come from different tables or passages of the source. Where no end group is shown, it is not given here.
# Assays:
# S. epidermidis = assay: Broth microdilution MIC, PJI isolates (Example 1); assay type: cell-based, Staphylococcus epidermidis; conditions: RPMI
# Experimental: Imipenem, levofloxacin, tigecycline, linezolid, vancomycin, oxacillin, ceftazidime, colistin, and amikacin were tested as comparators. Testing was conducted in accordance with guidelines from the Clinical and Laboratory Standards Institute (CLSI; M7 and M100). Test organisms comprised reference strains from the American Type Culture Collection, the Centers for Disease Control Antibiotic Reference Bank and clinical isolates from the Micromyx repository.
# [1] = tested on: P. aeruginosa CDC 0515 biofilm; assay: Microtiter plate biofilm studies (previous), resazurin viability
# From the text: In those previous studies, mature biofilms were formed on polystyrene microtiter plates through growth in CAMHB, followed by exposure to SEQ ID NO: 1 and resazurin addition to measure cell viability.
# P. aeruginosa CDC 0515 = conditions: RPMI
# Experimental: FIC test ranges were set based on broth microdilution MIC test data. FIC assay plates were prepared in accordance with CLSI guidelines for broth microdilution susceptibility testing; automated liquid handlers, and multi-channel pipettes were used to conduct serial dilutions and liquid transfers.
# SEQ ID NO: 1 was tested at two concentration ranges depending on the test media. All organisms tested in CAMHB 0.002% P-80 were tested from 0.015-16 μg/mL; when tested in RPMI 0.002% P-80, the range tested was 0.004-4 μg/mL. For each SEQ ID NO: 1 mother, wells across the standard 96-well microdilution plate were filled with 150 μL of sterile saline 0.002% P-80 in columns 2 through 12. A 300 μL aliquot at 20× the highest final concentration of each dilution range to be tested, was added to each well in column 1 of the plate. The Biomek 3000 was used to make eleven 2-fold serial dilutions horizontally across each row of the plate columns 2 through 11.
# The daughter plates were then completed using the Biomek FX to transfer 5 μL of drug solution from each well of the SEQ ID NO: 1 mother plates to the corresponding well in each daughter plate in a single step. […] The preparation of the daughter plates was performed for each media type; two times in total as all organisms were tested in both media types.
# A standard inoculum for each organism was prepared per CLSI method. Colonies were picked up from the primary plate and a suspension was prepared equal to 0.5 McFarland turbidity standard. The suspensions were additionally diluted 1:10 in the appropriate broth. A 10 μL standardized inoculum was delivered into each well using the Biomek 3000 from low to high concentration. These inoculations yielded a final cell concentration in the daughter plates of approximately 5×10^5 CFU/mL in each well. […] Exemplary checkboard panels are seen in Table 5 and Table 6. Plates were incubated at 35° C. for 16-20 hr.
# The MIC of the horizontal agent (row H) and the MIC of the vertical agent (column 12) were recorded and the wells of the growth-no growth interface for wells containing agents in combination at varying ratios were recorded by row. […] Pinpoint trailing was not interpreted as growth.
# For each relevant row of the panel, the FICI was calculated as:
# FICdrug A/MICdrug A+FICdrug B/MICdrug=FICI
# Mean FICI values were determined for each combination tested by averaging the FICI values as observed on each row of the checkerboard assay (See Table 9, e.g., if there were FICI values for B-G, those FICI values were added together and divided by the number of rows the FICI values which in this case is 6 to get the mean FICI value for that combination).
# Using the criteria described by: Odds FC. 2003. Synergy, antagonism, and what the chequerboard puts between them. J Antimicrob Chemother 52(1):1, the mean FICI for the combination was interpreted as follows: ≤0.5=synergy, >0.5-4=additive/indifferent, and >4=antagonism. […] An interpretation of indifference is consistent with growth inhibition at concentrations at or slightly below/above the MICs of the individual agents alone, resulting in a FICI value of >0.5 but […].
sequence,measurement,setting,value
RRWVRRVRRVWRRVVRVVRRWVRR [SEQ ID NO: 1],MIC50,S. epidermidis; All S. epidermidis (N = 104),0.12 µg/mL
same,MIC90,S. epidermidis; All S. epidermidis (N = 104),0.12 µg/mL
same,MIC50,S. epidermidis; MRSE (N = 58),0.12 µg/mL
same,MIC90,S. epidermidis; MRSE (N = 58),0.12 µg/mL
same,MIC50,S. epidermidis; MSSE (N = 46),0.12 µg/mL
same,MIC90,S. epidermidis; MSSE (N = 46),0.12 µg/mL
same,decrease in cell viability (resazurin reduction),"[1]; 500 μg/mL, 15 minutes",ca. 70%
same,MIC,[1]; two previous microtiter plate biofilm studies,8 µg/mL and 16 µg/mL
same,FICI,"P. aeruginosa CDC 0515; checkerboard row A, with Sodium Bicarbonate at 100",2.5
same,FICI,"P. aeruginosa CDC 0515; checkerboard row B, with Sodium Bicarbonate at 50",2.25
same,FICI,"P. aeruginosa CDC 0515; checkerboard row C, with Sodium Bicarbonate at 25",1.125
